Values joined by “and” are separate entries in the source; they are usually repeats but may differ in a detail not shown here. Equal values may be shown once. “Also recorded” adds a separate entry of the source.
Columns and labels:
[1] = In vivo biodistribution in mice; parameters: species or system normal CD-1 male mice; settings: for bone to blood ratio / bone to muscle ratio / Biodistribution: Blood / Biodistribution: Bone / Biodistribution: Brain / Biodistribution: Heart / Biodistribution: Kidney / Biodistribution: Liver / Biodistribution: Lung / Biodistribution: Muscle / Biodistribution: Pancreas / Biodistribution: Skin / Biodistribution: Spleen: iv
Protocol: Biodistribution experiments were performed by intravenously administering ^68Ga labeled 1a-h, 2, 3, BPAMD, and [^18F]NaF into normal, healthy male CD-1 mice (25-30 g). The injection activity was 20-30 μCi/animal. […] Organs of interest were harvested, weighed, and counts of radioactivity were measured by a gamma counter. The biodistribution of each sample was calculated as a percentage of the injected dose per gram of wet tissue weight (% ID/g). Tibia and femur bones were harvested and counted as bone samples.

[2] = In vitro binding to hydroxyapatite; settings: 20 mg hydroxyapatite in saline, 10 min at room temperature
Protocol: Hydroxyapatite (20 mg, Sigma-Aldrich, reagent grade powder) was incubated in isotonic saline (1 mL) for 24 h. Subsequently, either ^68Ga labeled 1a-h, 2, 3, BPAMD, or [^18F]NaF (1 μCi) was added to the hydroxyapatite suspension. After vortexing for 10 seconds, the suspension was incubated for 10 min at room temperature. The samples were then centrifuged at 10,000 rpm for 3 min and the supernatant was removed. The hydroxyapatite fraction was washed twice with saline (1 mL). Radioactivity in the combined supernatants and the hydroxyapatite fraction was measured using a gamma counter. The proportion of the ^68Ga complex binding to hydroxyapatite was determined as percent of ^68Ga absorbed to hydroxyapatite.

O=C([O-])CN(CCN(CC(=O)[O-])Cc1cc(CCC(=O)NC(P(=O)(O)O)P(=O)(O)O)ccc1[O-])Cc1cc(CCC(=O)NC(P(=O)(O)O)P(=O)(O)O)ccc1[O-].[68Ga+3] [[^68Ga]2]
bone to blood ratio ([1]; 2 min): 1.1
bone to muscle ratio ([1]; 2 min): 4.9
Biodistribution: Blood ([1]; 2 min post injection): 9.97 ± 1.40 % dose/g
Biodistribution: Bone ([1]; 2 min post injection): 11.0 ± 1.95 % dose/g
Biodistribution: Brain ([1]; 2 min post injection): 0.30 ± 0.02 % dose/g
Biodistribution: Heart ([1]; 2 min post injection): 4.13 ± 0.30 % dose/g
Biodistribution: Kidney ([1]; 2 min post injection): 19.4 ± 1.38 % dose/g
Biodistribution: Liver ([1]; 2 min post injection): 2.67 ± 0.12 % dose/g
Biodistribution: Lung ([1]; 2 min post injection): 5.47 ± 0.57 % dose/g
Biodistribution: Muscle ([1]; 2 min post injection): 2.26 ± 0.34 % dose/g
Biodistribution: Pancreas ([1]; 2 min post injection): 2.05 ± 0.23 % dose/g
Biodistribution: Skin ([1]; 2 min post injection): 3.19 ± 0.45 % dose/g
Biodistribution: Spleen ([1]; 2 min post injection): 2.08 ± 0.22 % dose/g
bone to blood ratio ([1]; 30 min): 26
bone to muscle ratio ([1]; 30 min): 58
Biodistribution: Blood ([1]; 30 min (0.5 hr) post injection): 0.73 ± 0.28 % dose/g
Biodistribution: Bone ([1]; 30 min (0.5 hr) post injection): 18.8 ± 2.82 % dose/g
Biodistribution: Brain ([1]; 30 min (0.5 hr) post injection): 0.03 ± 0.00 % dose/g
Biodistribution: Heart ([1]; 30 min (0.5 hr) post injection): 0.99 ± 0.13 % dose/g
Biodistribution: Kidney ([1]; 30 min (0.5 hr) post injection): 2.98 ± 1.13 % dose/g
Biodistribution: Liver ([1]; 30 min (0.5 hr) post injection): 0.44 ± 0.09 % dose/g
Biodistribution: Lung ([1]; 30 min (0.5 hr) post injection): 0.96 ± 0.23 % dose/g
Biodistribution: Muscle ([1]; 30 min (0.5 hr) post injection): 0.32 ± 0.05 % dose/g
Biodistribution: Pancreas ([1]; 30 min (0.5 hr) post injection): 0.36 ± 0.17 % dose/g
Biodistribution: Skin ([1]; 30 min (0.5 hr) post injection): 0.71 ± 0.13 % dose/g
Biodistribution: Spleen ([1]; 30 min (0.5 hr) post injection): 0.48 ± 0.09 % dose/g
bone to blood ratio ([1]; 60 min): 42
bone to muscle ratio ([1]; 60 min): 82.7 and 83
Biodistribution: Blood ([1]; 60 min (1 hr) post injection): 0.47 ± 0.08 % dose/g
Biodistribution: Bone ([1]; 60 min (1 hr) post injection): 19.7±4.2 % dose/g and 19.7 ± 4.17 % dose/g
Biodistribution: Brain ([1]; 60 min (1 hr) post injection): 0.02 ± 0.00 % dose/g
Biodistribution: Heart ([1]; 60 min (1 hr) post injection): 0.57 ± 0.13 % dose/g
Biodistribution: Kidney ([1]; 60 min (1 hr) post injection): 2.61 ± 0.95 % dose/g
Biodistribution: Liver ([1]; 60 min (1 hr) post injection): 0.43 ± 0.03 % dose/g
Biodistribution: Lung ([1]; 60 min (1 hr) post injection): 0.58 ± 0.09 % dose/g
Biodistribution: Muscle ([1]; 60 min (1 hr) post injection): 0.24 ± 0.04 % dose/g
Biodistribution: Pancreas ([1]; 60 min (1 hr) post injection): 0.27 ± 0.01 % dose/g
Biodistribution: Skin ([1]; 60 min (1 hr) post injection): 0.38 ± 0.05 % dose/g
Biodistribution: Spleen ([1]; 60 min (1 hr) post injection): 0.43 ± 0.05 % dose/g
bone to blood ratio ([1]; 120 min): 77
bone to muscle ratio ([1]; 120 min): 103
Biodistribution: Blood ([1]; 120 min post injection): 0.31 ± 0.09 % dose/g
Biodistribution: Bone ([1]; 120 min post injection): 23.9 ± 5.54 % dose/g
Biodistribution: Brain ([1]; 120 min post injection): 0.02 ± 0.00 % dose/g
Biodistribution: Heart ([1]; 120 min post injection): 0.42 ± 0.08 % dose/g
Biodistribution: Kidney ([1]; 120 min post injection): 2.86 ± 1.16 % dose/g
Biodistribution: Liver ([1]; 120 min post injection): 0.40 ± 0.03 % dose/g
Biodistribution: Lung ([1]; 120 min post injection): 0.40 ± 0.05 % dose/g
Biodistribution: Muscle ([1]; 120 min post injection): 0.23 ± 0.05 % dose/g
Biodistribution: Pancreas ([1]; 120 min post injection): 0.31 ± 0.11 % dose/g
Biodistribution: Skin ([1]; 120 min post injection): 0.33 ± 0.06 % dose/g
Biodistribution: Spleen ([1]; 120 min post injection): 0.43 ± 0.24 % dose/g
Biodistribution result in words (organ uptake, retention, excretion) ([1]; normal mice after iv injection): excellent bone uptake and fast kidney excretion; also recorded: excellent bone uptake and retention
Hydroxyapatite Binding (%) [2]: 90.8 ± 1.5%
